{"source": "patent US20100255020A1", "about": "“METHOD FOR INDUCING CYTOTOXIC T-CELLS, CYTOTOXIC T-CELL INDUCERS, AND PHARMACEUTICAL COMPOSITIONS AND VACCINES EMPLOYING THEM” (NEC CORPORATION, priority 2007, published 2010)", "key": {"[1]": {"test_system": "malignant tumors", "test": "Peptide immunotherapy of patients, tumor response by RECIST criteria (CT/MRI)", "format": "in vivo, human", "parameters": "key to RECIST, single lung metastasis / RECIST, total sum of longest diameters of 10 metastatic target lesions / RECIST, pubic bone metastatic tumor / RECIST determination 3 months after starting W10 peptide therapy: CR: all target lesions have disappeared; PR: the sum of the longest diameters of the target lesions decreases by at least 30%; PD: the sum of the longest diameters of the target lesions increases by at least 20%; SD: the change of tumr size is between PR or PD", "protocol": "Among 18 patients, 3 people are illustrated in the style of case reports. […] The mixture was prepared immediately prior to administration. When W10 peptide was administered without petussis vaccine in the safety test, W10 peptide solution was divided into 4 equal portions and injected intradermally at 4 locations in the same manner. A method to measure the diameter of a tumor and a method to analyze peptide-specific T-cells using an HLA-A24 tetramer by flow cytometry are described below.\nThe international RECIST criteria referred to here is an evaluation standard described in Theresse, P. et al., J Natl Cancer Inst. 2000, 92, 205-216. When there is confirmation by helical CT or MRI that all target lesions have disappeared this is defined as CR (complete response), when the sum of the longest diameters of the target lesions decreases by at least 30% this is defined as PR (partial response), when the sum of the longest diameters of the target lesions increases by at least 20% this is defined as PD (progressive disease), and when the change of tumr size is between PR or PD this is defined as SD (stable disease). However, regardless of the presence or absence of a change in the target lesions, when even one new lesion appears this is defined as PD.\nBased on the above-mentioned international RECIST criteria, which is used for evaluation of anticancer drugs, all measurable tumors were selected as target tumors, and change in the SLD of the tumors over the course of the therapy was monitored. In addition, number of all the tumors was counted, regardless of the size of a tumor, every time diagnostic imaging was carried out in order to lookout for new lesions. Diagnostic imaging was carried out in principle once a month by helical CT or MRI. If even one new metastasis appeared, regardless of the change in the primary lesion, it was judged as PD.\nClinical responses were evaluated according to the aforementioned international RECIST criteria for 18 patients who had been treated by immunotherapy using W10+Wc for at least 3 months and one week. Eight cased out of 18 patients were judged as SD, 10 cased were PD. […] In reports on peptide immunotherapy so far, the tumor control rate was limited to a few % up to ten or so % worldwide (Reference Documents 1 to 4). Compared with these already reported cases, this is a good reaction."}, "[2]": {"test_system": "HLA-A*2402 positive cell lines that express WT1 naturally (KAZZ, KCL22, KH88, MEG01)", "test": "Reactivity of WT1 peptide-specific cell lines toward tumor cells (IFN-γ ELISPOT)", "format": "cell-based, human", "conditions": "cell lines established from HLA-A*2402 positive patients, FIG. 5", "source_text": "Reactions of cell lines established from different patients are arranged in a bar graph."}, "[3]": {"test_system": "peptide-loaded target cells (C1R-A24, RA24, T2)", "test": "51Cr release assay of PBMC killing activity against peptide-loaded target cells", "format": "cell-based, human", "protocol": "Target cells were labeled with ^51Cr and loaded with HLA-binding peptide of interest. 5,000 or 10,000 cells/well of target cells were placed in 96-well U-bottom plate, and then, PBMCs having been stimulated twice in vitro were added thereto as a responder. Cells were incubated at 37° C. for 5 hours and ^51Cr released from the damaged cells during the incubation was measured, and % specific lysis was calculated. As target cells C1R-A24 or RA24 cells were used as a target when reactivity to HLA-A*2402 binding peptides were examined, and T2 cells were used as a target and incubation was carried out for 2 hours after addition of responder cells. Percent specific lysis was calculated as follows. % specific lysis=(test release-spontaneous release)/(total release-spontaneous release)×100."}, "[4]": {"target": "T1, HLA-A*0206 molecule (Homo sapiens, UniProt P04439, D140Y/D185E/D98H/E176V/E277Q/F33Y/G131W/G231S/I119V/I121R/I166T/I218V/L300P/L318F/N151K/N90K/P208A/P217A/Q86G/Q94H/R138H/R169H/T345S)", "T1 construct": "expressed in transfected cells; host or cells: RA2.6 (mouse TAP-deficient RMAS cells transfected with pMKITneo bearing HLA-A*0206 cDNA)", "test": "Peptide binding to HLA-A*0206 molecule on RA2.6 cells (flow cytometry, Kd)", "conditions": "HLA-A*0206, RA2.6 cells; read-out: Binding assay data (−log Kd) (converted)", "protocol": "The ability of a peptide to bind to an HLA-A*0206 molecule, which is a product of the HLA-A*0206 gene, was measured using RA2.6 cells (cell line newly generated in Kochi University), wherein cDNA of the HLA-A*0206 gene is introduced into RMAS, which is a mouse TAP (transporter associated with antigen processing)-deficient cell line.\nRA2.6 cells were first cultured overnight at 26° C., during this incubation HLA-A*0206 molecules devoid of bound peptide accumulated. Serial dilutions of peptide were added to these cells and peptide binding was carried out at room temperature for 30 minutes.\nSubsequently, culture was carried out at 37° C. for 3.5 hours, during this incubation empty HLA-A*0206 molecules to which no peptide was bound were denatured, and the tertiary structure was lost.\nThe cells were stained by adding thereto fluorescently-labeled monoclonal antibody BB7.2, which specifically recognizes the peptide-bound HLA-A*0206 molecule, and incubating on ice for 20 minutes.\nSubsequently, the amount of fluorescence per cell was measured using a flow cytometer, and a dissociation constant Kd value was calculated by a method published in the literature (Udaka et al., Immunogenetics, 51, 816-828, 2000)."}, "[5]": {"target": "HLA-A*2402 molecule (Homo sapiens, UniProt P04439, D101N/D140Y/D185E/E176V/E190D/F33S/G103R/G107R/I119L/I121M/I306V/K335N/L105A/L180Q/L300P/N151K/N90K/Q86E/Q94H/R106L/R138H/R89G/T104I/T345S/V100E/W191G/Y123F)", "test": "Peptide binding to HLA-A*2402 molecule on C1R-A24 cells (flow cytometry, Kd)", "conditions": "HLA-A*2402, C1R-A24 cells; read-out: Binding assay data (−log Kd) (converted)", "protocol": "The ability of a peptide to bind to an HLA-A*2402 molecule, which is a product of the HLA-A*2402 gene, was measured using C1R-A24 cells expressing the HLA-A*2402 molecule (cells generated by Professor Masafumi Takiguchi, Kumamoto University being supplied with permission by Associate Professor Masaki Yasukawa, Ehime University).\nC1R-A24 cells were first exposed to acidic conditions at a pH of 3.3 for 30 seconds, thus dissociating and removing a β2m light chain, which is associated with HLA class I molecules in common, and an endogenous peptide originally bound to the HLA-A*2402 molecule. After neutralization, purified β2m was added to C1R-A24 cells, the obtained product was added to serial dilutions of a peptide, and incubated on ice for 4 hours. […]\nSubsequently, the number of MHC-pep complexes per C1R-A24 cell (proportional to the intensity of fluorescence of the above-mentioned fluorescent antibody) was quantitatively measured using a FACScan fluorescence-activated flow cytometer (Becton Dickinson Biosciences). A dissociation constant Kd value between the HLA-A*2402 molecule and the peptide was calculated from the average intensity of fluorescence per cell by a method published in the literature (Udaka et al., Immunogenetics, 51, 816-828, 2000)."}, "[6]": {"target": "HLA-A*0201 molecule (Homo sapiens, UniProt P04439, D140Y/D185E/D98H/E176V/E277Q/G131W/G231S/I119V/I121R/I166T/I218V/L300P/L318F/N151K/N90K/P208A/P217A/Q86G/Q94H/R138H/R169H/T345S)", "test": "Peptide binding to HLA-A*0201 molecule on JY cells (flow cytometry, Kd)", "conditions": "HLA-A*0201, JY cells; read-out: Binding assay data (−log Kd) (converted)", "protocol": "The ability of a peptide to bind to an HLA-A*0201 molecule, which is a product of the HLA-A*0201 gene, was measured using strain JY cells expressing the HLA-A*0201 molecule.\nJY cells were first exposed to acidic conditions at a pH of 3.8 for 30 seconds, thus dissociating and removing a β2m light chain and an endogenous peptide, which were noncovalently associated with the HLA-A* 0201 molecule. After neutralization, a reconstitution experiment was carried out.\nThe above-mentioned JY cells and the purified […] were added to serial dilutions of peptide for which the binding ability needs to be measured, and incubation was carried out on ice for 4 hours. HLA-A*0201 molecules that had reassociated up to this time point were stained using the fluorescently-labeled monoclonal antibody BB7.2, a conformation dependent monoclonal Ab specific for an assembled form of HLA-A*0201 molecule.\nSubsequently, the amount of fluorescence per cell was measured using a flow cytometer and a dissociation constant Kd value was calculated by a method published in the literature (Udaka et al., Immunogenetics, 51, 816-828, 2000)."}, "[7]": {"conditions": "HLA-A*2402 binding peptides, FIG. 9a and b"}}, "note": "Where no end group is shown, it is not given here.", "data": [{"sequence": "CYTWNQMNL (listed as Homo sapiens) [235Y, reference compound]", "values": [{"measurement": "Effect of immunotherapy on tumor", "setting": "[1]; patient KB07-005, prostate cancer, 235Y from December 2006", "result": "no effect"}, {"measurement": "Primary tumor by MRI", "setting": "[1]; patient KB07-006, 3 mg 235Y emulsified with Montanide, weekly intradermal, 4th week", "result": "apparent reduction of the primary tumor"}, {"measurement": "RECIST, single lung metastasis", "setting": "[1]; patient KB07-006, 235Y immunization for 10 months", "result": "SD"}, {"measurement": "Primary tumor on continued immunization", "setting": "[1]; patient KB07-006, 235Y weekly, no recurrence at three and a half years", "result": "disappeared"}, {"measurement": "Reactivity of peptide-dependent cell line toward WT1-expressing cell lines compared with C1R-A24", "setting": "[2]", "result": "tends to be higher although differences are small"}, {"measurement": "Peptide-reactive cytolytic cells in PBMCs of patients", "setting": "[3]; [7]", "result": "cytolytic cells include those reactive"}]}, {"sequence": "GVFRGIQDV [W292]", "values": [{"measurement": "Kd", "setting": "[4]", "result": 331, "unit": "nM"}]}, {"sequence": "RVPGVAPTL [W302]", "values": [{"measurement": "Kd", "setting": "[5]", "result": 21.4, "unit": "nM"}, {"measurement": "Kd", "setting": "[6]", "result": 389, "unit": "nM"}, {"measurement": "Kd", "setting": "[4]", "result": 245, "unit": "nM"}, {"measurement": "Reactivity of peptide-dependent cell line toward WT1-expressing cell lines compared with C1R-A24", "setting": "[2]", "result": "tends to be higher although differences are small"}, {"measurement": "Peptide-reactive cytolytic cells in PBMCs of patients", "setting": "[3]; HLA-A*0201 binding peptides, T2 targets", "result": "contain cytolytic cells that recognize"}, {"measurement": "Peptide-reactive cytolytic cells in PBMCs of patients", "setting": "[3]; [7]", "result": "cytolytic cells include those reactive"}]}]}
